Results: paper PMC10770148, “Transport and inhibition mechanism for VMAT2-mediated synaptic vesicle loading of monoamines” (Cell Research, 2024)
Like-named read-outs stand apart in the source and are kept apart here.

Key:
VMAT2_WT = VMAT2_WT (Homo sapiens, UniProt Q05940); assay: MST binding to WT VMAT2
Experimental: (§1) The eGFP-tagged full-length VMAT2 or VMAT2 mutants was purified by size exclusion chromatography in the assay buffer (50 mM HEPES, 150 mM NaCl, 0.01% DDM, 0.001% CHS, pH 7.4) as described but without cleavage. Peak fractions were pooled and diluted to 40 nM. […] For MST measurements, a series of 16 sequential 1:1 dilutions were prepared using assay buffer for each ligand, and each ligand dilution was mixed 1:1 with diluted protein to final protein concentration of 20 nM and final ligand concentrations in the μM to nM range. The samples were incubated for 10 min at room temperature, and then loaded into Standard Monolith Capillaries (Cat# MO-K022, NanoTemper Technologies). Measurements were carried out with a Monolith NT.115 device at 80% LED power and 40% MST power. Kd was determined using the MO. Affinity Analysis software (version 2.3, NanoTemper Technologies, Germany) is with the Kd fit function. Capillaries displaying aggregation or adsorption were excluded. Data of at least three independently pipetted measurements were analyzed and Kd is expressed as mean ± SEM. Binding curves were plotted by GraphPad Prism Prism 9.5.1 (GraphPad Software Inc., San Diego, USA).

VMAT2 Y433F = target: T1, VMAT2 Y433F (Homo sapiens, UniProt Q05940, Y433F); assay: MST binding to VMAT2 Y433F mutant; details: Y433F variant, mean ± SEM
T1 construct: The eGFP-tagged full-length VMAT2 or VMAT2 mutants was purified by size exclusion chromatography; made in house; host or cells: Expi293 cells
T1 sequence (Q05940 whole entry Y433F): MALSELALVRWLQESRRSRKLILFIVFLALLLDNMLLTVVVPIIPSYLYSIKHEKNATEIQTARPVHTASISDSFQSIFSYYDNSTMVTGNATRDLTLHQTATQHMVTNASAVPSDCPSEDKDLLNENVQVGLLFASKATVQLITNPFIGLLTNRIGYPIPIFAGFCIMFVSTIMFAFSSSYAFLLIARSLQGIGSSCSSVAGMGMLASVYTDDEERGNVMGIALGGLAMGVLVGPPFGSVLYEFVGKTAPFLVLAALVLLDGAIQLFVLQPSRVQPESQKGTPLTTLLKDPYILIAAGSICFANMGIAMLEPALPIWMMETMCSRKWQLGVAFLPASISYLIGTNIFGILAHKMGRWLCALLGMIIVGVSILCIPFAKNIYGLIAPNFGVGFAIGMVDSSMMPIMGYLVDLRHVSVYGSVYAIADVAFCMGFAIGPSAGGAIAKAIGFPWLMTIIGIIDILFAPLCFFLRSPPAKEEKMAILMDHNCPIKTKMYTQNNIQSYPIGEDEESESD
Experimental: as §1

VMAT2 and VMAT1 = tested on: VMAT2 and VMAT1; set-up: method as in PMID 8643547; details: cited from earlier work
VMAT2 L37F = target: T2, VMAT2 L37F (Homo sapiens, UniProt Q05940, L37F); assay: MST binding to VMAT2 L37F mutant
T2 construct: The eGFP-tagged full-length VMAT2 or VMAT2 mutants was purified by size exclusion chromatography; made in house; host or cells: Expi293 cells
T2 sequence (Q05940 whole entry L37F): as the sequence (Q05940 whole entry Y433F) above, with L37F, F433Y counted along it
Experimental: as §1

VMAT2 V232L = target: T3, VMAT2 V232L (Homo sapiens, UniProt Q05940, V232L); assay: MST binding to VMAT2 V232L mutant; details: V232L variant, mean ± SEM
T3 construct: The eGFP-tagged full-length VMAT2 or VMAT2 mutants was purified by size exclusion chromatography; made in house; host or cells: Expi293 cells
T3 sequence (Q05940 whole entry V232L): as the sequence (Q05940 whole entry Y433F) above, with V232L, F433Y counted along it
Experimental: as §1

VMAT2 I308V = target: T4, VMAT2 I308V (Homo sapiens, UniProt Q05940, I308V); assay: MST binding to VMAT2 I308V mutant; details: I308V variant, mean ± SEM
T4 construct: The eGFP-tagged full-length VMAT2 or VMAT2 mutants was purified by size exclusion chromatography; made in house; host or cells: Expi293 cells
T4 sequence (Q05940 whole entry I308V): as the sequence (Q05940 whole entry Y433F) above, with I308V, F433Y counted along it
Experimental: as §1

VMAT1_WT = target: T5, VMAT1_WT (Homo sapiens, UniProt P54219); assay: MST binding to WT VMAT1
T5 sequence (P54219 1-525): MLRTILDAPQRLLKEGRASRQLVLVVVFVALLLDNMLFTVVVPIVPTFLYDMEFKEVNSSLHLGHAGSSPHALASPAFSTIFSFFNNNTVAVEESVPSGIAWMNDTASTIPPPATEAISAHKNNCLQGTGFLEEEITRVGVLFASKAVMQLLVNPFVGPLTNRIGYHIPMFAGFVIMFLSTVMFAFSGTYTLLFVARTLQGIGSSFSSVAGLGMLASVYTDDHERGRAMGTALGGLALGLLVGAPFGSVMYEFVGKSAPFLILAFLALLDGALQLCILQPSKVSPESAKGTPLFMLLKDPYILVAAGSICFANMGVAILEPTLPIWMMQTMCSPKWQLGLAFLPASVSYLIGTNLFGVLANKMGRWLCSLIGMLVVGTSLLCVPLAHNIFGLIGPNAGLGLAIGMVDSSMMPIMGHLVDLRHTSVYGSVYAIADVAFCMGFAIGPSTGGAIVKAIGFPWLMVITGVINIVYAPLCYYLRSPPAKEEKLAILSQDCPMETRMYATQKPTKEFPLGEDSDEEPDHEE

VMAT2 E312A = assay: MST binding to VMAT2 E312A mutant; set-up: species or system human; details: E312A versus WT, MST (Fig. S9a)
Experimental: as §1

VMAT2 N34A = assay: MST binding to VMAT2 N34A mutant; set-up: species or system human; details: N34A versus WT
Experimental: as §1

VMAT2 W318A = target: T6, VMAT2 W318A (Homo sapiens, UniProt Q05940, W318A); assay: MST binding to VMAT2 W318A mutant; details: MST (Fig. S9a), versus WT
T6 construct: The eGFP-tagged full-length VMAT2 or VMAT2 mutants was purified by size exclusion chromatography; made in house; host or cells: Expi293 cells
T6 sequence (Q05940 whole entry W318A): as the sequence (Q05940 whole entry Y433F) above, with W318A, F433Y counted along it
Experimental: as §1

[1] = target: T7, VMAT2 Leu124 and Leu125 mutant (Homo sapiens, UniProt Q05940, L124R/L125R); assay: MST binding to VMAT2 Leu124/Leu125 mutant; details: MST (Fig. S9a), versus WT
T7 construct: The eGFP-tagged full-length VMAT2 or VMAT2 mutants was purified by size exclusion chromatography; made in house; host or cells: Expi293 cells
T7 sequence (Q05940 whole entry L124R/L125R): as the sequence (Q05940 whole entry Y433F) above, with L124R, L125R, F433Y counted along it
Experimental: as §1

VMAT2 = tested on: VMAT2; set-up: method as in PMID 23506877; details: cited from earlier work
VMAT1 = tested on: VMAT1; set-up: method as in PMID 23506877; details: cited from earlier work

Sequence of VMAT2_WT (Q05940 whole entry): as the sequence (Q05940 whole entry Y433F) above, with F433Y counted along it

Question: Which Kd (VMAT2_WT) does the source give for `NCCc1c[nH]c2ccc(O)cc12` [5-HT, serotonin] here?
Answer: 3300 ± 1010 nM

Question: And the Kd (VMAT2 Y433F)?
Answer: 3440 ± 1130 nM

Question: Which “affinity or preference VMAT2 versus VMAT1” value (VMAT2 and VMAT1) does the source give for `COC(=O)[C@H]1[C@H]2C[C@@H]3c4[nH]c5cc(OC)ccc5c4CCN3C[C@H]2C[C@@H](OC(=O)c2cc(OC)c(OC)c(OC)c2)[C@@H]1OC` [RES, reserpine] here?
Answer: slight preference for VMAT2 over VMAT1

Question: What does the source list for `COc1cc2c(cc1OC)C1CC(=O)C(CC(C)C)CN1CC2` (stereo not drawn) [TBZ, tetrabenazine]?
Answer: Kd (VMAT2_WT; MST, VMAT2 WT, mean ± SEM, n = 3–4, read-out: Kd): 60 nM; Kd (VMAT2 Y433F): 437 ± 141 nM; reduction of TBZ binding by L37F variant (VMAT2 L37F; L37F versus WT VMAT2, MST): 45 fold; Kd (VMAT2 L37F; MST, L37F variant, mean ± SEM): 2780 ± 1080 nM; Kd (VMAT2 V232L): 22900 ± 20000 nM; Kd (VMAT2 I308V): 168 ± 103 nM; difference in affinity between VMAT2 and VMAT1 (VMAT1_WT; 60 nM vs 9.38 μM): ~150 fold; Kd (VMAT1_WT; VMAT1 WT, mean ± SEM): 9380 nM; decrease in TBZ binding affinity, E312A mutant (VMAT2 E312A): 8 fold; reduction in TBZ binding affinity, N34A substitution (VMAT2 N34A): 7 fold; TBZ binding, W318A mutant (VMAT2 W318A): substantial reduction in TBZ binding; TBZ association, Leu124 and Leu125 perturbations [1]: largely diminished TBZ association; IC50 (VMAT2): […]; IC50 difference VMAT2 versus VMAT1 (VMAT1; 0.3 μM vs 3 μM): 10 fold; IC50 (VMAT1; VMAT1): 3000 nM; affinity or preference VMAT2 versus VMAT1 (VMAT2 and VMAT1): selectively target VMAT2

Question: With `NCCc1c[nH]cn1` [histamine] as the compound, how does the “higher affinity of VMAT2 than VMAT1” value (VMAT2 and VMAT1; substrates) read?
Answer: 30 fold

Question: For `O=C(c1ccc(F)cc1)C1CCN(CCn2c(=O)[nH]c3ccccc3c2=O)CC1` [ketanserin], which “affinity or preference VMAT2 versus VMAT1” value (VMAT2 and VMAT1) is on record?
Answer: slight preference for VMAT2 over VMAT1
